Measurements published in ChEMBL document CHEMBL1152145, “The discovery of equipotent PPARalpha/gamma dual activators” (Bioorg Med Chem Lett, 2008).

Assays:
[1] = Cmax in CD rat at […], iv and 5 mg/kg, po; type: ADME, organism-based; details: in vivo
[2] = Bioavailability in CD rat at […], iv and 5 mg/kg, po; type: ADME, organism-based; details: in vivo
[3] = Clearance in CD rat at […], iv and 5 mg/kg, po; type: ADME, organism-based; details: in vivo
[4] = test system: Rattus norvegicus; test: Decrease in total triglyceride level in Zucker fatty (fa/fa) rat at 10 mg/kg, bid after 5 days; type: functional; parameters: scale not given: the % may be the effect or the level left
[5] = Volume of distribution at steady state in CD rat at […], iv and 5 mg/kg, po; type: ADME, organism-based; details: in vivo, read-out: Vdss
[6] = test system: Rattus norvegicus; test: Increase in liver weight in Zucker fatty (fa/fa) rat at 30 mg/kg, bid after 5 days; type: functional
[7] = molecular target: T1, Peroxisome proliferator-activated receptor alpha (Homo sapiens, UniProt Q07869)
T1 sequence (Q07869 whole entry): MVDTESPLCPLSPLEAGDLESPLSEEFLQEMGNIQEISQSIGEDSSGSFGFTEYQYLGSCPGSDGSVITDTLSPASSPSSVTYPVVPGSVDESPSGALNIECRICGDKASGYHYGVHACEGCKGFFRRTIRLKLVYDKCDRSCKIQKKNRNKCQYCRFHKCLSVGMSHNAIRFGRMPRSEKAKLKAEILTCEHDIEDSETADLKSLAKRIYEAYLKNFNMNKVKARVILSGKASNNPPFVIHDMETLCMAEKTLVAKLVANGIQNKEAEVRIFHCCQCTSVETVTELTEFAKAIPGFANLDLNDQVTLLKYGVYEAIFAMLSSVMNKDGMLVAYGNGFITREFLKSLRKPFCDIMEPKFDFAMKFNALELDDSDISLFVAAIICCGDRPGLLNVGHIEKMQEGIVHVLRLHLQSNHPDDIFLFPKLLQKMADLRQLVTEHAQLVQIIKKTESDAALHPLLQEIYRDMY
Description: Agonist activity at human PPARalpha receptor by cell based transient transfection assay

[8] = AUC in CD rat at 5 mg/kg, po; type: ADME, organism-based; parameters: dose 5 mg/kg, route oral; details: plasma
[9] = test system: Rattus norvegicus; test: Decrease in insulin level in Zucker fatty (fa/fa) rat at 30 mg/kg, bid after 5 days; type: functional; parameters: scale not given: the % may be the effect or the level left
[10] = Half life in CD rat at […], iv and 5 mg/kg, po; type: ADME, organism-based; details: in vivo
[11] = molecular target: T2, Peroxisome proliferator-activated receptor alpha (Mus musculus, UniProt P23204)
T2 sequence (P23204 whole entry): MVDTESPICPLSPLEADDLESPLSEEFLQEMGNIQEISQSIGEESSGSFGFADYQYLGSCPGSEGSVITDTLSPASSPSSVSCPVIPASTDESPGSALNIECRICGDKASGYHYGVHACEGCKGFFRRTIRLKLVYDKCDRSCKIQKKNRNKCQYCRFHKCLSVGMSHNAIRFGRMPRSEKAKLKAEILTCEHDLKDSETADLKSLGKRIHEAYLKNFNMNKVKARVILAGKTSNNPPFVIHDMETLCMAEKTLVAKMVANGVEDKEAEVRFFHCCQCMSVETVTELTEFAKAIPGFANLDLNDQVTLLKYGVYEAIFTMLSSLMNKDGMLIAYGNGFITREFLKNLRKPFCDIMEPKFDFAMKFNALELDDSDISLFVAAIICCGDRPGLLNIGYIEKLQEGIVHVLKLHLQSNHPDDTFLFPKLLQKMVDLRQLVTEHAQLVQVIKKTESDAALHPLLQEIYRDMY
Description: Agonist activity at mouse PPARalpha receptor by cell based transient transfection assay

[12] = test system: Rattus norvegicus; test: Increase in liver weight in Zucker fatty (fa/fa) rat at 10 mg/kg, bid after 5 days; type: functional
[13] = test system: Rattus norvegicus; test: Decrease in total triglyceride level in Zucker fatty (fa/fa) rat at 30 mg/kg, bid after 5 days; type: functional; parameters: scale not given: the % may be the effect or the level left
[14] = molecular target: T3, Peroxisome proliferator-activated receptor delta (Mus musculus, UniProt P35396)
T3 sequence (P35396 whole entry): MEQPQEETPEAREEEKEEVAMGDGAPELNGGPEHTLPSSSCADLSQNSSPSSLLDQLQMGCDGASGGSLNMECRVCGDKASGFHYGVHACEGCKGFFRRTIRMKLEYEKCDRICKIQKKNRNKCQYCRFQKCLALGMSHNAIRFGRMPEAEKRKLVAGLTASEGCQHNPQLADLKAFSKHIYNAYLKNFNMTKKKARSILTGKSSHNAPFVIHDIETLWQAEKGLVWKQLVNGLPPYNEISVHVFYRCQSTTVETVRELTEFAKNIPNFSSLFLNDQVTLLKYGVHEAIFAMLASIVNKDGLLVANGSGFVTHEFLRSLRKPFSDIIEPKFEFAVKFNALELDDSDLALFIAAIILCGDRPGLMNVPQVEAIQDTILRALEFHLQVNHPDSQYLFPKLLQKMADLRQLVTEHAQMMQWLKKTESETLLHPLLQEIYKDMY
Description: Agonist activity at mouse PPARdelta receptor by cell based transient transfection assay

[15] = test system: Rattus norvegicus; test: Decrease in insulin level in Zucker fatty (fa/fa) rat at 10 mg/kg, bid after 5 days; type: functional; parameters: scale not given: the % may be the effect or the level left
[16] = molecular target: T4, Peroxisome proliferator-activated receptor delta (Homo sapiens, UniProt Q03181)
T4 sequence (Q03181 whole entry): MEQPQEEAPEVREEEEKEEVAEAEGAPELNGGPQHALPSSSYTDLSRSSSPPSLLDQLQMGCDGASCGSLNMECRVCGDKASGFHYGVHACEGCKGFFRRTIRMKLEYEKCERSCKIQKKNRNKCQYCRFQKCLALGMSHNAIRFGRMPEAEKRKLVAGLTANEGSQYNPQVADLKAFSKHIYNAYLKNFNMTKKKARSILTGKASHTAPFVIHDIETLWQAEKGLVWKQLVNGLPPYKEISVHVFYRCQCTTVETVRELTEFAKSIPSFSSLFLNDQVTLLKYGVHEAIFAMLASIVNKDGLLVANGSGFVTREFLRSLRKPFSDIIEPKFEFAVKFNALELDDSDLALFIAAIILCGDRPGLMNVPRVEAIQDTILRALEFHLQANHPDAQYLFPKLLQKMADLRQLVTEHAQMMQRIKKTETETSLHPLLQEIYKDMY
Description: (§1) Agonist activity at human PPARdelta receptor by cell based transient transfection assay

[17] = molecular target: T5, Peroxisome proliferator-activated receptor gamma (Mus musculus, UniProt P37238)
T5 sequence (P37238 whole entry): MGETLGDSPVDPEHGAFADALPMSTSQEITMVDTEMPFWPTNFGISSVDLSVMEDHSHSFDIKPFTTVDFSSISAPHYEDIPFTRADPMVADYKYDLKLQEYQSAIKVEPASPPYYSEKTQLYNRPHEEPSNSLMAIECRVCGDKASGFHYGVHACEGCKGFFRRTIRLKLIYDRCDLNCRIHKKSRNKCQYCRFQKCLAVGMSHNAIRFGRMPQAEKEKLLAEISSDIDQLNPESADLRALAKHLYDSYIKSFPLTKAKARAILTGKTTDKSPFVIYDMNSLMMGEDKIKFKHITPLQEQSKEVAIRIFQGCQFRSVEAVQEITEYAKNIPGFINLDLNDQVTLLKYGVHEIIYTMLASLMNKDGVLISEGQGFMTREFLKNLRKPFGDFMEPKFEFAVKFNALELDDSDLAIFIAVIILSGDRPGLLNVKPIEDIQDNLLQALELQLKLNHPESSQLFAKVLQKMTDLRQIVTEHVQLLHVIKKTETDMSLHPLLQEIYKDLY
Description: Agonist activity at mouse PPARgamma receptor by cell based transient transfection assay

[18] = molecular target: T6, Peroxisome proliferator-activated receptor gamma (Homo sapiens, UniProt P37231)
T6 sequence (P37231 whole entry): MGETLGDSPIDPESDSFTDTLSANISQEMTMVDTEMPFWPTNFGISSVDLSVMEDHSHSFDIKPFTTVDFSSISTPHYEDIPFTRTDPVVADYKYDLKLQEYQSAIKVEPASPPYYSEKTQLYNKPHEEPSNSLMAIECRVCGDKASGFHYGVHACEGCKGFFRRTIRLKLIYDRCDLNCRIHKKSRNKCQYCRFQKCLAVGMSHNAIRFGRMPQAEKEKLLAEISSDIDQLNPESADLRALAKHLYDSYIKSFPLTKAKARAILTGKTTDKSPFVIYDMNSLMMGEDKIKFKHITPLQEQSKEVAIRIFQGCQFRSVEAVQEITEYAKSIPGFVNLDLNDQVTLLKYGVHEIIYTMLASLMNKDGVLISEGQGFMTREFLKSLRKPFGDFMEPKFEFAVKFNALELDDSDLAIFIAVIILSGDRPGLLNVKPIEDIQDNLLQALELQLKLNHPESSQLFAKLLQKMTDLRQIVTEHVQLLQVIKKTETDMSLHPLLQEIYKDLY
Description: Agonist activity at human PPARgamma receptor by cell based transient transfection assay

[19] = molecular target: T4, Peroxisome proliferator-activated receptor delta; remark: listed apart in the source
Description: as §1

Row | Compound | EC50 [7] [nM] | EC50 [16] [nM] | EC50 [18] [nM] | further results
1 | Cc1cc(CNC(=O)c2cc(-c3ccc(C(C)(C)C)cc3)n(C)n2)ccc1OC(C)(C)C(=O)O | 10 | > 10000 | – | Cmax [1]: 1130 ng/mL; bioavailability [2]: 22%; clearance [3]: 17 mL/min/kg; Activity [4]: 57%; Vd [5]: 0.3 L/kg; Activity [6]: 14%; AUC [8]: 1790 ng·h/mL; Activity [9]: 35%; half-life [10]: 49.8 min; EC50 [11]: 640 nM; Activity [12]: 9%; Activity [13]: 45%; EC50 [14]: > 25000 nM; Activity [15]: 10%; EC50 [17]: 11 nM
2 | C=CCn1nc(-c2ccc(C(C)(C)C)cc2)cc1C(=O)NCc1ccc(OC(C)(C)C(=O)O)c(C)c1 | 45 | – | 60 | –
3 | C=CCn1nc(C(=O)NCc2ccc(OC(C)(C)C(=O)O)c(C)c2)cc1-c1ccc(C(C)(C)C)cc1 | – | – | – | EC50 [11]: 6000 nM; EC50 [14]: > 25000 nM; EC50 [17]: 150 nM
4 | COc1cc(CNC(=O)c2cc(-c3ccc(CC(C)C)cc3)n(C)n2)ccc1OC(C)(C)C(=O)O | > 25000 | > 25000 | – | –
5 | Cc1cc(CNC(=O)c2cc(-c3ccc(C(C)C)cc3)n(C)n2)ccc1OC(C)(C)C(=O)O | – | 4850 | 8 | EC50 [11]: 280 nM; EC50 [14]: 7100 nM; EC50 [17]: 16 nM
6 | Cc1nc(-c2ccc(C(C)(C)C)cc2)sc1C(=O)NCc1ccc(OC(C)(C)C(=O)O)cc1 | 4 | 10000 | 800 | –
7 | Cc1cc(CNC(=O)c2cc(-c3ccc(N4CCCC4)cc3)n(C)n2)ccc1OC(C)(C)C(=O)O | 8 | – | – | –
8 | Cc1cc(CNC(=O)c2cc(-c3ccc(-c4ccccc4C)cc3)n(C)n2)ccc1OC(C)(C)C(=O)O | 90 | – | 30 | EC50 [11]: 1800 nM; EC50 [14]: > 25000 nM; EC50 [17]: 60 nM
9 | C=CCOc1ccc(-c2cc(C(=O)NCc3ccc(OC(C)(C)C(=O)O)c(C)c3)nn2C)cc1 | – | > 25000 | – | –
10 | CCn1nc(C(=O)NCc2ccc(OC(C)(C)C(=O)O)c(C)c2)cc1-c1ccc(C(C)(C)C)cc1 | 10 | > 25000 | 15 | EC50 [11]: 2260 nM; EC50 [14]: > 25000 nM; EC50 [17]: 36 nM
11 | CCn1nc(-c2ccc(C(C)(C)C)cc2)cc1C(=O)NCc1ccc(OC(C)(C)C(=O)O)c(C)c1 | 50 | 2700 | 30 | –
12 | Cc1cc(CNC(=O)c2cc(-c3ccc(OCc4ccccc4)cc3)n(C)n2)ccc1OC(C)(C)C(=O)O | > 25000 | > 25000 | 80 | –
13 | Cc1cc(CNC(=O)c2cc(-c3ccc(C(C)C)cc3)nn2C)ccc1OC(C)(C)C(=O)O | 20 | 1360 | 50 | –
14 | Cn1nc(-c2ccc(C(C)(C)C)cc2)cc1C(=O)NCc1ccc(OC(C)(C)C(=O)O)cc1 | 160 | – | 1000 | EC50 [19]: 10000 nM
15 | CCn1nc(C(=O)NCc2ccc(OC(C)(C)C(=O)O)c(OC)c2)cc1-c1ccc(C(C)(C)C)cc1 | > 25000 | > 25000 | 190 | –
16 | Cc1cc(CNC(=O)c2cc(-c3ccc(C(C)(C)C)cc3)n(Cc3ccccc3)n2)ccc1OC(C)(C)C(=O)O | 200 | 25000 | – | –
17 | Cc1cc(CNC(=O)c2cc(-c3ccc(N4CCOCC4)cc3)n(C)n2)ccc1OC(C)(C)C(=O)O | 85 | 35 | 110 | –
18 | COc1cc(CNC(=O)c2cc(-c3ccc(C(C)(C)C)cc3)n(C)n2)ccc1OC(C)(C)C(=O)O | > 25000 | > 25000 | 176 | –
19 | Cc1cc(CNC(=O)c2cc(-c3ccc(CC(C)C)cc3)nn2C)ccc1OC(C)(C)C(=O)O | 45 | 2870 | 50 | –
